According to paper PMC4077696 (PLoS Biology, 2014):
“Also recorded” adds a separate entry of the source. Structures can show the parent of a compound that is named as a salt.

What was measured:
PvPMV = PvPMV (Plasmodium vivax, UniProt A5K302); experiment: PEXEL cleavage assay with immunopurified PvPMVHA and fluorogenic KAHRP PEXEL peptide; format: biochemical
Description: To investigate PvPMVHA activity, we affinity purified it, as well as the PfPMVHA control, using anti-HA agarose, as previously described [13],[18].
PMV-agarose was prepared by adding α-HA-agarose (Sapphire Bioscience) to parasite lysates, prepared by sonication in 1% Triton X-100/PBS, for 1 h before extensive washing in same [12],[13]. […] Samples were excited at 340 nm and fluorescence emission measured at 492 nm using an Envision fluorescence plate reader (Perkin-Elmer) heated to 37°C for 150 min. Samples were shaken between measurements.

[1] = biological target: PMV in P. falciparum–infected erythrocytes (Plasmodium falciparum, UniProt Q8I6Z5); experiment: PEXEL processing of GFP reporters in parasites by immunoblot; format: cell-based; conditions: for PEXEL processing of KAHRP-GFP in parasites, in words / PEXEL processing of PfEMP3-GFP in parasites, in words: 5 h treatment, immunoblot; for PEXEL processing of KAHRP-GFP in parasites, in words: 20 and 50 µM; for PEXEL processing of PfEMP3-GFP in parasites, in words: up to 50 µM
PMV in P. falciparum–infected erythrocytes, sequence (Q8I6Z5 whole entry, the tested form may be a part): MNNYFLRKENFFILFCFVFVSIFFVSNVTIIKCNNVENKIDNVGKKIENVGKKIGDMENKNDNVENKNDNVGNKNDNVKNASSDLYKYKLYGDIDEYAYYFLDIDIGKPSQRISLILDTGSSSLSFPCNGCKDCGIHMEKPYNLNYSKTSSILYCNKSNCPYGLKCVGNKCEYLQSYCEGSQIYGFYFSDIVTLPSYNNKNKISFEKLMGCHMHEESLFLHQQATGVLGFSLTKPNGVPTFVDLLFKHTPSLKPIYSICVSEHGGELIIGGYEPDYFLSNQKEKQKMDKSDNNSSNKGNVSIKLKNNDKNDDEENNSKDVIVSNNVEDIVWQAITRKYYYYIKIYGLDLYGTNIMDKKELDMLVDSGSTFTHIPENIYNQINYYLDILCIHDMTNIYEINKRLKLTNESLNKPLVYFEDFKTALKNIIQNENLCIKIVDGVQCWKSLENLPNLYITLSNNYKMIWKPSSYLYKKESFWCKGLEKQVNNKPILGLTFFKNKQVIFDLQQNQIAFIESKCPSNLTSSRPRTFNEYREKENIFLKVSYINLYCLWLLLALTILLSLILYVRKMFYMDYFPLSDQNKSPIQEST
Description: To assess whether 916 could inhibit PMV in P. falciparum–infected erythrocytes, parasites expressing the PEXEL protein P. falciparum erythrocyte membrane protein 3 (PfEMP3) fused to green fluorescent protein (GFP) were treated with increasing concentrations of inhibitor, and PEXEL processing was evaluated by immunoblot. […] A GFP-only band, representing degraded chimera in the food vacuole, was also observed at ∼26 kDa (Figure 3A).
(§1) Trophozoites (30–34 h) expressing PfEMP3-GFP, KAHRP-GFP, or SERA5s-GFP were magnet-purified (Miltenyi Biotech), incubated with inhibitors in 400 µl total volume at 37°C for 1–5 h, treated with 0.09% saponin containing inhibitor, and washed pellets were solubilized in Laemmli's buffer, boiled for 3 min, and frozen at −20°C. Proteins were separated by SDS-PAGE, transferred to nitrocellulose and blocked in 10% skim milk/PBS-T, and probed with rat α-HA (Roche 3F10; 1∶1,000), mouse α-GFP (Roche; 1∶1,000), rabbit α-Aldolase (1∶1,000), rabbit α-HSP70 (1∶4,000), rabbit α-PfPMV (1∶1,000), or rabbit α-Hyp8 (1∶500) primary antibodies followed by horseradish peroxidase-conjugated secondary antibodies (Silenius) and detected by enhanced chemiluminescence (Amersham).

[2] = tested on: P. falciparum protein translation; experiment: Global protein synthesis by radiolabeling parasite proteins after drug treatment; format: cell-based, Plasmodium falciparum; conditions: for Global protein synthesis after 23 h treatment of rings: 15 µM or 50>15 µM, BFA 5 µg/ml; for Global protein synthesis after 5 h treatment of trophozoites: 15 or 50 µM, BFA 10 µg/ml, 15 min labeling
Description: To gain further insight into the effects of 916, 024, and 025 on parasites, we assessed global protein synthesis following drug treatment by radiolabeling parasite proteins. Treatment of trophozoites with inhibitor for 5 h prior to radiolabeling had no detectable effect on translation, even at 50 µM concentrations (Figure S4A), indicating the compounds are not direct inhibitors of the translation machinery. We next assessed protein synthesis following 23 h of drug treatment of ring stage parasites (aged 1–3 h old at the initiation of treatment). […] Indeed, Giemsa smears following treatment identified a small proportion of pyknotic parasites in the population (results not shown). […] It is possible that PMV inhibition by 916 treatment has a similar but weaker effect to BFA, in that it causes the accumulation of uncleaved PEXEL precursors in the ER, perturbing ER transport, and that this negatively affects translation by an ER stress response. An alternative possibility is that translation was decreased slightly as a result of parasites dying from 916-mediated impairment of erythrocyte remodeling. Either way, the profile for 916 was different to that seen for 024 and 025, even at 50 µM, indicating the latter analogs likely kill parasites via a different mechanism to 916.
Whole parasite proteins were radiolabeled by culturing magnet-purified trophozoites (wild-type 3D7 or expressing PfEMP3-GFP) in Met/Cys-free medium for 30 min at 37°C before addition of 800 µCi/ml ^35S-Met/Cys (Perkin/Elmer) to the medium for the indicated times. Pellets were snap frozen in ethanol/dry ice bath and stored at −80°C. For radiolabeling in the presence of PMV inhibitor, parasites were treated with 20 µM WEHI-916 for 5 h before labeling commenced. For pulse-chases, proteins were radiolabeled in the presence or absence of inhibitor, as above, before further culture in radiolabel-free, inhibitor-free complete medium for the indicated times at 37°C before snap freezing. Frozen samples were either solubilized in Laemmli's buffer (Figure S4) or solubilized in 1% Triton X-100/PBS with protease inhibitor cocktail (Roche) and PfEMP3-GFP species immunopurified with α-GFP agarose (MBL) at 4°C for 2 h (Figures 3 and S3), and proteins were resolved by SDS-PAGE, visualized by autoradiography (7-d exposures), and quantified using a GS-800 Calibrated Densitometer (Bio-Rad).

[3] = tested on: Hyp8-GFP export in P. falciparum–infected erythrocytes; experiment: Quantification of Hyp8-GFP export and Maurer's clefts by immunofluorescence microscopy; format: cell-based, Plasmodium falciparum
Description: (§2) For quantification of events in cells infected with parasites expressing Hyp8-GFP, highly synchronous ring-stage parasites engineered to express Hyp8-GFP from the CRT promoter were obtained by incubation of erythrocytes with viable merozoites for 15 min [47] and treated with 20 or 50 µM 916 30 min postinvasion for 13 h (until Hyp8-GFP expression from the CRT promoter had occurred for 1 h). Smears were fixed in 90∶10 acetone∶methanol, labeled with anti-GFP and anti-EXP2 antibodies, and Z-stacks captured on a Deltavision Elite microscope using a 100× objective. Over 40 Z-stacks per condition were imaged using the same exposure settings to allow quantitative analysis between groups.
A parasite mask was generated by combining the signals from the maximum intensity projections of the nuclear (DAPI) and parasitophorous vacuole membrane (EXP2) images and setting a manual threshold. A whole infected erythrocyte mask was produced by manually tracing the cell boundary using the DIC image. Average GFP intensity measurements were determined on masked summed intensity projections of the GFP images using MetaMorph Image Analysis suite (Molecular Devices, USA). Ratios of the average intensity measurements of GFP inside the parasite (inside EXP2) versus exported to the erythrocyte (outside EXP2) were determined.
Clefts were counted using ImageJ's “Find Maxima” function to detect local maxima in the green signal within the masked cell region.

[4] = tested on: EXP2 secretion in P. falciparum–infected erythrocytes; experiment: EXP2 secretion to the parasitophorous vacuole membrane; format: cell-based, Plasmodium falciparum; conditions: 20 or 50 µM, 13 h
Description: as §2
The EXP2 signal was measured by masking the infected cell using a watershed transform on the summed and filtered red signal, seeded by the DAPI-positive parasite.

beta-secretase (BACE-1) = beta-secretase (BACE-1) (Homo sapiens, UniProt P56817); experiment: Off-target activity against human aspartyl protease BACE-1; format: biochemical
beta-secretase (BACE-1), sequence (P56817 46-501): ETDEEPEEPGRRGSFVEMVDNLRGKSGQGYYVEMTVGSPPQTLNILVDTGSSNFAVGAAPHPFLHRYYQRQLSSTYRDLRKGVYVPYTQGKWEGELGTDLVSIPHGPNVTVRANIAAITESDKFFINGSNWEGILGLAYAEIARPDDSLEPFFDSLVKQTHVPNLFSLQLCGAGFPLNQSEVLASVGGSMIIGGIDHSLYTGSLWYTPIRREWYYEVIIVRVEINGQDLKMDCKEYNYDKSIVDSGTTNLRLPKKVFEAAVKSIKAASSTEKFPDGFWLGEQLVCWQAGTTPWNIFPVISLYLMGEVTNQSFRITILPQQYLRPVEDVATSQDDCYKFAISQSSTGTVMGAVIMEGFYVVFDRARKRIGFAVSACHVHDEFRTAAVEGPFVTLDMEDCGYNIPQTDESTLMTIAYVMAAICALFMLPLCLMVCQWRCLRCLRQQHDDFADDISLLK

Cathepsin D = Cathepsin D (Homo sapiens, UniProt P07339); experiment: Off-target activity against human aspartyl protease Cathepsin D; format: biochemical; conditions: read-out: IC50 CathD
Cathepsin D, sequence (P07339 65-412): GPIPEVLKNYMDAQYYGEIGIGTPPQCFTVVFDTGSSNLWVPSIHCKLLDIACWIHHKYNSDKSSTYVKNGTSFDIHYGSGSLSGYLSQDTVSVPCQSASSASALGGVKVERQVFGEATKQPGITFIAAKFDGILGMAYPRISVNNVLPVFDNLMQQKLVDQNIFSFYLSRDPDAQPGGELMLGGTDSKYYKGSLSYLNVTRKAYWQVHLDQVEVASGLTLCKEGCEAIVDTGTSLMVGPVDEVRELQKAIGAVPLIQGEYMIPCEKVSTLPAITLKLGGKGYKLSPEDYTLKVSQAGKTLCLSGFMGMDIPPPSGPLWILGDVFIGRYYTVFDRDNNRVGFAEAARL

[5] = biological target: T1, PMV in P. falciparum expressing PMVHA-glmS (Plasmodium falciparum, UniProt Q8I6Z5); experiment: PEXEL processing of PfEMP3-GFP in PMVHA-glmS parasites with PMV knockdown, immunoblot; format: cell-based; conditions: 20 µM 916, 5 h
T1 construct: incorporated in frame at the 3′ of the PMV locus by homologous recombination; expressed in transfected cells; host or cells: P. falciparum NF54 with pPMVHA-glmS integrated at the PMV locus, also transfected with PfEMP3-GFP
T1 sequence (Q8I6Z5 whole entry): as the sequence (Q8I6Z5 whole entry, the tested form may be a part) above
Description: As 916 inhibited PMV in parasites (for example, by 13-fold, Figure 3G), the additive effect of PMV knockdown plus 916 treatment was investigated. Parasites expressing PMVHA-glmS were transfected with a construct encoding PfEMP3-GFP, and PEXEL processing was assessed by immunoblot.
as §1

PvPMV, sequence (A5K302 35-536): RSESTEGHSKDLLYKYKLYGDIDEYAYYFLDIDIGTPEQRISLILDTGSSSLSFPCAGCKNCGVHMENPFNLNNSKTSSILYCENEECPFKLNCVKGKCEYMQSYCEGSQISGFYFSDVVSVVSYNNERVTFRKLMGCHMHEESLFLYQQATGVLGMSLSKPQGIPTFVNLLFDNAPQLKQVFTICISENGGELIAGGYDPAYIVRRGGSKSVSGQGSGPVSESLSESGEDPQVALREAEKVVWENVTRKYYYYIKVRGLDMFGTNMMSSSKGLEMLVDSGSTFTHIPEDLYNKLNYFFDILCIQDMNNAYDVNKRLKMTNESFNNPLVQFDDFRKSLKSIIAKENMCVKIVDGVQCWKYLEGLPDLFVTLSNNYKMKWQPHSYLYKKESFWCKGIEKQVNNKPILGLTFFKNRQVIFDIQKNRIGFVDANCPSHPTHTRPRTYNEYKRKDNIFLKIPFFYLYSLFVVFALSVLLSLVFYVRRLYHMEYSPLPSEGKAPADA

Compound	Activity against PvPMVHA, in words (PvPMV)	IC50 (PvPMV) [µM]	PEXEL processing of KAHRP-GFP in parasites, in words [1]	PEXEL processing of PfEMP3-GFP in parasites, in words [1]	Global protein synthesis after 23 h treatment of rings [2]	Global protein synthesis after 5 h treatment of trophozoites [2]	Nonexported Hyp8-GFP signal inside EXP2, in words ([3]; 20 or 50 µM, 13 h)	Hyp8-GFP in Maurer's clefts (exported), in words ([3]; 20 or 50 µM, 13 h from 30 min postinvasion)	Reduction of mean number of GFP-positive Maurer's clefts ([3]; compared to DMSO)	Inhibition of PfEMP3-GFP cleavage after 2 to 5 h of treatment ([1]; 2 to 5 h)	Inhibition of PfEMP3-GFP cleavage after 1 h of treatment ([1]; 1 h)	inhibition at 20 µM ([1]; read-out: Rescue of PfEMP3-GFP cleavage inhibition in inhibitor-free medium) [%]	EXP2 signal at the parasitophorous vacuole membrane, in words [4]	IC50 (beta-secretase (BACE-1)) [µM]	IC50 (Cathepsin D) [µM]	Enhancement of PEXEL cleavage impairment following PMV knockdown [5] [%]
CC[C@H](C)[C@H](NC(=O)[C@@H](NC(=O)[C@H](CCCNC(=N)N)NS(=O)(=O)Cc1ccccc1)C(C)C)[C@@H](O)CC(=O)NCCc1ccccc1 [compound 025, PhCH2SO2Arg-Val-AHMHpA-NH(CH2)2Ph . TFA]	weak activity	1.77	no effect	no effect	no defect in global protein synthesis	no defect in global protein synthesis	–	–	–	–	–	–	–	–	–	–
CC(C)C[C@H](NC(=O)[C@@H](NC(=O)[C@H](CCCNC(=N)N)NS(=O)(=O)Cc1ccccc1)C(C)C)[C@@H](O)CC(=O)NCCc1ccccc1 [compound 916, PhCH2SO2-Arg(NH2)-Val-Sta-NH(CH2)2Ph .TFA]	–	–	accumulation of both uncleaved (black arrow) and signal peptide-cleaved (red arrow) protein	dose-dependent increase in unprocessed PfEMP3-GFP	minor reduction in translation; also recorded: slight reduction in translation	no defect in global protein synthesis	small but significant increase in nonexported GFP signal	dose-dependent decrease of Hyp8-GFP in MCs	up to 39%	uncleaved PfEMP3-GFP increased	No effect	~50	no statistical difference	> 100	25	50
